“Also recorded” adds a separate entry of the source.
How the values were obtained:
Assay type in all cases: cell-based, human
kidney organoids = assay: Aristolochic acid toxicity and nephroprotection model in kidney organoids; details: for PGC-1a expression (real-time quantitative PCR): AA alone or AA with cilostamide
From the text: FIG. 34. […] Representative immunohistochemistry of aristolochic acid (AA) and tenofovir (TFV) treatments. Day 32 Kg-derived organoids. Al/AA treatments for 24H, while all TFV treatments for 48 H. Scale bars, 50 gm. Quantification determined as a percentage of DAP/+ cells. n=3, total DAP/+>1000 for each treatment. (*) indicates p-value<0.05.
FIG. 35. OAT1 inhibition by probenecid protects proximal tubules against AA toxicity. Representative immunohistochemistry of probenecid treatments with AA 2.5 gg/mL. Day 38 Kg-derived organoids. All treatments for 48 H. Scale bars, 50 um. Quantification determined as a percentage of DAPI+ cells. n=3, total DAPI+>1000 for each treatment. (*) indicates p-value<0.05.
FIG. 36. […] Representative immunohistochemistry of cilostamide and sildenafi/treatments with AA 2.5 gg/mL. Day 38 H9-derived organoids. All treatments for 48 H. Scale bars, 50 gm. Quantification determined as a percentage of DAPI+ cells. n=3, total DAPI+>1000 for each treatment. (*) indicates p-value<0.05.
FIG. 37. Real-time quantitative PCR mRNA was extracted from organoid samples and confirmed with Nanodrop. cDNA library Was generated by reverse transcription. AQP-I is prominently expressed on proximal tubules. PGC1-a is the master regulator of mitochondrial biogenesis.

NPCs in 3D culture = assay: Growth factor and small molecule screening in 3D culture (LTL+ tubules); details: added in 3D culture from day 10
Method: FIG. 10. Spontaneous differentiation of SIX2+ cells into nephrons and growth factor screening in 3D culture. (a) Staining with PAX8 and LHX1 in hESCs on day 10 of the differentiation. hESCs were differentiated with CHIR 8 µM for 4 days, activn 10 ng/ml for 3 days, and FGF9 10 ng/ml for 3 days. […] Scale bar: 50 μm. (b) Brighfield imaging for hESCs on day 10 and 21 of the differentiation. FGF9 was withdrawn on day 10, and cells were cultured in the basic medium by day 21. Scale bars: 50 μm. (c) Brightfield and immunocytochemistry for LTL and NPHS1 in hESCs on day 28 of the differentiation. Scale bar: 50 μm. (d) The protocol for growth factor screening. Cells were replated to 3D culture on day 10, and the listed growth factors and small molecules were tested. (e) The number of LTL+ tubules in the organoids. […] (f) Brightfield imaging of 3D co-culture with an ureteric bud cell sphere. Scale bar: 100 μm. (g) Whole-mountstaining for LTL in the organoids on day 16. Scale bar: 100 μm. (h) Immunohistochemistry of the organoids on day 16. Scale bars: 50 μm. LTL: lotus tetragonolobus lectin. NPHS1: Nephrin.
To test whether the formation of epithelial structures could be facilitated by 3D culture conditions, on day 10, at the time of FGF9 withdrawal, the Inventors replated NPCs in ultra-low-attachment, round-bottom 96-well plates and cultured them for 1 week. NPCs formed 3D spherical aggregates, one per 96-well, in suspension culture.

HDF-α hiPSCs = assay: Differentiation of hiPSCs into posterior intermediate mesoderm
Method: hPSCs grown on Geltrex were washed once with PBS (Life Technologies, #10010-049) and dissociated into single cells with Accutase ([…] Technologies, #07920). Cells were then plated at a density of 2-2.4×10^4 (H9) or 1-1.4×10^4 (HDF, 2C) cells/cm^2 onto 24-well tissue culture plates (TPP, #92024) coated with 1% Geltrex in ReproFF2 supplemented with the ROCK inhibitor Y27632 (10 μM) (TOCRIS, #1254) and FGF2 (10 ng/ml). After 72 hours, cells (50% confluent) were briefly washed in PBS and then cultured in basic differentiation medium consisting of Advanced RPMI 1640 (Life Technologies, #12633-020) and 1X L-GlutaMAX (Life Technologies, #35050-061) supplemented with CHIR99021 (8-10 μM) (TOCRIS, #4423) for 4 days to induce late primitive streak cells Noggin (5 ng/ml) was also used for hiPSC differentiation in addition to CHIR (10 μM). To induce posterior intermediate mesoderm, cells were then cultured in Advanced RPMI+1X L-GlutaMAX+activin (10 ng/mL) (R&D, #338-AC-050) for 3 days. For induction of nephron progenitor cells, the media was then changed to Advanced RPMI+1X L-GlutaMAX+FGF9 (10 ng/ml) (R&D, #273-F9-025/CF) for 7 days. CHIR (3 μM) was added to the media from day 9 to 11 of differentiation to induce renal vesicles. On day 14, cells were switched to the basic differentiation medium and cultured for an additional 7 to 14 days (total of 21 to 28 days). […]

H9 hESCs = assay: Differentiation of hESCs into posterior intermediate mesoderm; details: for WT1 expression on day 7: added to CHIR in the first step, hESCs
Method: hPSCs grown on Geltrex were washed once with PBS (Life Technologies, #10010-049) and dissociated into single cells with Accutase ([…] Technologies, #07920). Cells were then plated at a density of 2-2.4×10^4 (H9) or 1-1.4×10^4 (HDF, 2C) cells/cm^2 onto 24-well tissue culture plates (TPP, #92024) coated with 1% Geltrex in ReproFF2 supplemented with the ROCK inhibitor Y27632 (10 μM) (TOCRIS, #1254) and FGF2 (10 ng/ml). After 72 hours, cells (50% confluent) were briefly washed in PBS and then cultured in basic differentiation medium consisting of Advanced RPMI 1640 (Life Technologies, #12633-020) and 1X L-GlutaMAX (Life Technologies, #35050-061) supplemented with CHIR99021 (8-10 μM) (TOCRIS, #4423) for 4 days to induce late primitive streak cells Noggin (5 ng/ml) was also used for hiPSC differentiation in addition to CHIR (10 μM). To induce posterior intermediate mesoderm, cells were then cultured in Advanced RPMI+1X L-GlutaMAX+activin (10 ng/mL) (R&D, #338-AC-050) for 3 days. For induction of nephron progenitor cells, the media was then changed to Advanced RPMI+1X L-GlutaMAX+FGF9 (10 ng/ml) (R&D, #273-F9-025/CF) for 7 days. CHIR (3 μM) was added to the media from day 9 to 11 of differentiation to induce renal vesicles. On day 14, cells were switched to the basic differentiation medium and cultured for an additional 7 to 14 days (total of 21 to 28 days). The medium was replaced every 2 or 3 days. A variety of growth factors and small molecules were tested for differentiation.
PAX2 and LHX1 were not expressed (FIG. 1f), confirming that activin treatment of late primitive streak cells produced posterior and not anterior IM cells.
As the posterior primitive streak is induced by a BMP4 signal gradient, the Inventors hypothesized that CHIR treatment of HDF-α hiPSCs might induce endogenous BMP4 production that promotes differentiation into the posterior primitive streak and subsequently lateral plate mesoderm. […] Optimizing the protocol for individual cell lines based on their endogenous BMP4 production maximized the efficiency of generating posterior IM.

## CCCN(CCC)S(=O)(=O)c1ccc(C(=O)O)cc1 [Probenecid, probenecid]
Kidney organoids; Probenecid 10 LIM with AA 2.5 gg/mL, 48 H, day 38 organoids
  nephroprotection against AA: provided strongest nephroprotection against AA
Kidney organoids; probenecid alone, 48 H, day 38 organoids
  damage to organoids: causes no damage to organoids

## CN(C(=O)CCCOc1ccc2[nH]c(=O)ccc2c1)C1CCCCC1 [cilostamide]
Kidney organoids
  PGC-1a expression (real-time quantitative PCR): protected
Kidney organoids; cilostamide with AA
  nephroprotection against AA (real-time quantitative PCR, AQP-I): dose-dependent nephroprotection against AA, significant preservation of proximal tubules
Kidney organoids; cilostamide with AA 2.5 gg/mL, 48 H, day 38 H9-derived organoids
  mitochondrial biogenesis and protection: increases mitochondrial biogenesis and protection in AA-toxicity model

## IGF-1: growth factor tested in 3D culture screening
NPCs in 3D culture
  number of LTL+ tubules in the organoids: did not significantly increase the number of LTL+ tubules

## COc1cccc2c1cc([N+](=O)[O-])c1c(C(=O)O)cc3c(c12)OCO3 [AA, aristolochic acid]
Kidney organoids
  PGC-1a expression (real-time quantitative PCR): downregulated
Kidney organoids; AA treatments for 24H, day 32 organoids
  kidney damage biomarkers by immunohistochemistry: dose-dependent upregulation of kidney damage biomarkers

## HGF: growth factor tested in 3D culture screening
NPCs in 3D culture
  number of LTL+ tubules in the organoids: did not significantly increase the number of LTL+ tubules; also recorded: showed a tendency to increase LTL+ tubules

## JAG1: growth factor tested in 3D culture screening
NPCs in 3D culture
  number of LTL+ tubules in the organoids: did not significantly increase the number of LTL+ tubules

## NC(=O)c1ccc(-c2nc(-c3ccc4c(c3)OCO4)c(-c3ccccn3)[nH]2)cc1 [SB431542]
NPCs in 3D culture
  number of LTL+ tubules in the organoids: did not significantly increase the number of LTL+ tubules

## O=C(Nc1cccc2cccnc12)c1ccc(N2C(=O)[C@@H]3[C@H](C2=O)[C@@H]2C=C[C@H]3C2)cc1 [IWR-1]
NPCs in 3D culture
  number of LTL+ tubules in the organoids: did not significantly increase the number of LTL+ tubules

B1: activin: growth factor used to induce posterior intermediate mesoderm (protein, UniProt P08476 311-426, looked up)
Inhibin beta A chain: GLECDGKVNICCKKQFFVSFKDIGWNDWIIAPSGYHANYCEGECPSHIAGTSGSSLSFHSTVINHYRMRGHSPFANLKSCCVPTKLRPMSMLYYDDGQNIIKKDIQNMIVEECGCS
modifications: Inhibin beta A chain
notes: growth factor used to induce posterior intermediate mesoderm
HDF-α hiPSCs; activin after CHIR plus noggin 5 ng/mL in the first step
  efficiency of generation of WT1+HOXD11+ posterior IM cells: 80-90%
H9 hESCs; activin 10 ng/mL between days 4 and 7, after CHIR 8 μM for 4 days
  efficiency of induction of WT1+HOXD11+ cells: ~90%

B2: noggin: a BMP4 signaling antagonist (protein, UniProt Q13253 28-232, looked up)
Noggin: QHYLHIRPAPSDNLPLVDLIEHPDPIFDPKEKDLNETLLRSLLGGHYDPGFMATSPPEDRPGGGGGAAGGAEDLAELDQLLRQRPSGAMPSEIKGLEFSEGLAQGKKQRLSKKLRRKLQMWLWSQTFCPVLYAWNDLGSRFWPRYVKVGSCFSKRSCSVPEGMVCKPSKSVHLTVLRWRCQRRGGQRCGWIPIQYPIISECKCSC
HDF-α hiPSCs; noggin 5 ng/mL with CHIR in the first step of differentiation
  T, TBX6 and FOXF1 expression on day 4: expressed T and TBX6 but not FOXF1 on day 4
H9 hESCs
  WT1 expression on day 7: significantly suppressed WT1 expression on day 7

B3: BMP4: growth factor; posteriorizes the primitive streak (protein, UniProt P12644 293-408, looked up)
Bone morphogenetic protein 4: SPKHHSQRARKKNKNCRRHSLYVDFSDVGWNDWIVAPPGYQAFYCHGDCPFPLADHLNSTNHAIVQTLVNSVNSSIPKACCVPTELSAISMLYLDEYDKVVLKNYQEMVVEGCGCR
H9 hESCs; BMP4 1 ng/mL added to CHIR
  FOXF1 expression at day 4: resulted in FOXF1 expression at day 4
H9 hESCs
  WT1 expression on day 7: suppression of WT1 expression on day 7

B4: BMP7: growth factor tested in 3D culture screening (protein, UniProt P18075 293-431, looked up)
Bone morphogenetic protein 7: STGSKQRSQNRSKTPKNQEALRMANVAENSSSDQRQACKKHELYVSFRDLGWQDWIIAPEGYAAYYCEGECAFPLNSYMNATNHAIVQTLVHFINPETVPKPCCAPTQLNAISVLYFDDSSNVILKKYRNMVVRACGCH
NPCs in 3D culture
  number of LTL+ tubules in the organoids: did not significantly increase the number of LTL+ tubules

B5: WNT4: growth factor tested in 3D culture screening (protein, UniProt P56705 23-351, looked up)
Protein Wnt-4: SNWLYLAKLSSVGSISEEETCEKLKGLIQRQVQMCKRNLEVMDSVRRGAQLAIEECQYQFRNRRWNCSTLDSLPVFGKVVTQGTREAAFVYAISSAGVAFAVTRACSSGELEKCGCDRTVHGVSPQGFQWSGCSDNIAYGVAFSQSFVDVRERSKGASSSRALMNLHNNEAGRKAILTHMRVECKCHGVSGSCEVKTCWRAVPPFRQVGHALKEKFDGATEVEPRRVGSSRALVPRNAQFKPHTDEDLVYLEPSPDFCEQDMRSGVLGTRGRTCNKTSKAIDGCELLCCGRGFHTAQVELAERCSCKFHWCCFVKCRQCQRLVELHTCR
NPCs in 3D culture
  number of LTL+ tubules in the organoids: did not significantly increase the number of LTL+ tubules

B6: mouse Wnt9b: growth factor tested in 3D culture screening (protein, UniProt O35468 24-359, looked up)
Protein Wnt-9b: AAYFGLTGREVLTPFPGLGTAAAPAQAGAHLKQCDLLKLSRRQKQLCRREPGLAETLRDAAHLGLLECQFQFRQERWNCSLEGRTGLLQRGFKETAFLYAVSAAALTHALARACSAGRMERCTCDDSPGLESRQAWQWGVCGDNLKYSTKFLSNFLGPKRGSKDLRARADAHNTHVGIKAVKSGLRTTCKCHGVSGSCAVRTCWKQLSPFRETGQVLKLRYDTAVKVSSATNEALGRLELWAPAKPGGPAKGLAPRPGDLVYMEDSPSFCRPSKYSPGTAGRVCSRDSSCSSLCCGRGYDTQSRMVVFSCHCQVQWCCYVECQQCAQQELVYTCKR
NPCs in 3D culture
  number of LTL+ tubules in the organoids: did not significantly increase the number of LTL+ tubules

From patent US20180258404A1, “METHODS OF GENERATING NEPHRONS FROM HUMAN PLURIPOTENT STEM CELLS” (THE BRIGHAM AND WOMEN'S HOSPITAL, INC., priority 2015, published 2018)
